From patent publication US8912144B2, “Method for treating stroke via administration of NEP1-40 and inosine” (Children's Medical Center Corporation, priority 2003, dated 2014)
Entries after “also recorded” stand apart in the source; their conditions may differ.

What was measured:
Assay type in all cases: in vivo, rat
[1] = tested on: corticospinal tract (CST) axons; assay: BDA anterograde tracing of CST fibers from the undamaged hemisphere into the denervated side of the spinal cord after stroke
Procedure: All procedures were carried out in accordance with NIH Guidelines with the approval of Children's Hospital Animal Care and Use Committee. Unilateral in-farcts were induced in the sensorimotor cortex of adult Sprague-Dawley rats (275-300 g; Charles River Laboratories, Wilmington, Mass.) using the photothrombotic model of focal ischemia (Markgraf et al., 1993). Briefly, rats were anesthetized with a combination of ketamine (75 mg/kg) and Domitor (medetomidine; 0.5 mg/kg) and a 15 mm skin incision was made at the midline rostral to the posterior suture. A craniotomy was performed over the sensorimotor cortex using a hand-held drill to open a window that spanned medio-laterally between the sagittal sinus and temporal ridge, and rostro-caudally between Bregma +2.5 mm and Bregma −3.5 mm. The photosensitive dye Rose Bengal was injected into the femoral vein, and a fiber-optic cable connected to a xenon light source was centered over the craniotomy, focusing light directly on the exposed region of the brain for 30 minutes. A green filter fitted over the bulb restricted illumination to ˜525 nm, a wavelength that excites Rose Bengal and causes it to release free radical species. The subsequent damage to endothelial cells in exposed portions of the cortical vasculature causes platelet aggregation, resulting in severe focal ischemia. […] Control animals were generated using the same surgical procedure but without photo-activation of Rose Bengal. Animals with strokes were randomly assigned to receive a continuous infusion of either saline (0.9%, Baxter Scientific; n=12), inosine (50 mM in saline, Sigma-Aldrich Co., St. Louis, Mo.; n=12), NEP1-40 (500 μM in 2.5% DMSO/97.5% saline; n=12), or inosine +NEP1-40 (n=12) into the cisterna magna using osmotic minipumps (0.25 μl/h, Alzet model 2004, Durect Corpora-tion, Palo Alto, Calif.). In addition to these, a separate set of animals with the same 4 groups (n=12 in each) was created for a long-term behavioral study. Because CSF drug concentrations presumably require several hours to achieve steady-state levels when delivered via slow-releasing osmotic pumps, all animals received a 25 μl intraventricular bolus of the appropriate agent prior to pump placement. Pumps were tucked between the shoulder blades and infusion needles were secured onto the cranium with a silicon-based glue. The incision was closed with silk sutures and cleaned with betadine and ethanol pads. For 72 hours following surgery, animals received twice-daily, subcu-taneous injections of Buprenex (buprenorphine; Reckitt Benkiser Pharmaceuticals Inc., Richmond, Va.) for pain management.
In groups treated for four weeks after stroke, animals were re-anesthetized, the infusion needle and pump were removed, and a craniotomy was performed over the uninjured SMA. The anterograde tracer bioti-nylated dextran amine (BDA: Molecular Probes: 10% wt/vol in sterile saline) was injected stereotaxically at depths of 0.5, 1.0, and 2.0 mm below the cortical surface at 18 standardized points distributed over the sensorimotor cortex (70 nl per injection; Nano-ject, Drummond Scientific, Broomall, Pa.). Two weeks later, animals were anesthetized and perfused transcardially with 0.9% saline followed by 4% paraformaldehyde. The brain and spinal cord were dissected and post-fixed overnight in 4% paraformaldehyde, followed by 10% and 30% sucrose solutions over the next few days. Tissue was em-bedded in OCT Tissue Tek Medium (Sakura Finetek USA Inc., CA) and frozen on dry ice. Forty micron free-floating sections were cut in the coronal plane on a Frigo-Jung 8500 cryostat. Free-floating spinal cord sections were used to detect crossing fibers using avidin-biotin complex conjugated to horseradish peroxidase (Vectastain ABC Kit; Vector Laboratories), followed by Vector SG (Vector Laboratories) as a chromagen. Sections were mounted on pre-coated slides and lightly counterstained with eosin to distinguish grey and white matter boundaries. […]

[2] = Horizontal (irregular) ladder walk after dorsal hemisection of the spinal cord; details: i.c.v. (50 mM, 0.25 μl/hour) or i.v. (260 mM, 10 μl/hour) for 4 weeks
Procedure: (§1) To test the effects of inosine on spinal cord injury, the dorsal half of the spinal cord in rats was transected, severing the descending CST and other pathways. CST loss severely disrupted fine, skilled behaviors. Inosine was then administered either intra-cerebroventricularly (50 mM, 0.25 μl/hour) or intravenously (260 mM, 10 μl/hour) for 4 weeks. […] Complete transection of the corticospinal tract was verified histologically. The effectiveness of inosine was clinically relevant, since it avoids the risk of intracerebral infection.

C1q, C3, metallothionein = assay: Immunohistochemistry for C1q, C3 and metallothionein in layer 5 of the uninjured forelimb motor cortex; details: 7 days after stroke
Procedure: To investigate whether some of the changes seen in the microarray study translate into differences at the protein level, immunohistochemistry was performed for C1q, C3, and metallothionein (Study VII). […] Immunohistochemistry was used to investigate whether inosine-induced changes found at the mRNA level translate into changes at the protein level. Analyses were carried out in layer 5 of the uninjured forelimb motor cortex 7 days after a stroke was induced in the corresponding region of the contralateral hemisphere. Inosine induced changes in levels of complement proteins C1q (a) and C3 (b) and metallothionine (c).

[3] = tested on: raphespinal fibers and corticospinal tract axons; assay: Anatomical sprouting of raphespinal and corticospinal tract axons after spinal cord injury; details: after dorsal hemisection
Procedure: as §1

[4] = 4 weeks treatment after stroke, vs saline
[5] = layer 5 of undamaged hemisphere
[6] = layer 5 of undamaged hemisphere, vs saline

SMILES: OC[C@H]1O[C@@H](n2cnc3c(O)ncnc32)[C@H](O)[C@@H]1O [inosine]
- number of synaptic bouton-like structures ([1]; 0.25 mm^2 box spanning Laminae VI and VII, vs saline): tripled
- increase in number of labeled fibers ≧40 μm in gray matter on the denervated side [1, 4]: 2.5 fold
- increase in number of lengthy axons (>200 μm) in gray matter on the denervated side [1, 4]: 3.5 fold
- number of BDA-labeled CST fibers, inosine- vs saline-treated ([1]; CST axons labeled two weeks after stroke): No significant differences
- increase in number of CST fibers re-crossing the midline to enter the denervated dorsal funiculus, relative to controls ([1]; inosine 50 mM infusion 4 weeks after stroke): three-fold
- number of CST fibers in the denervated dorsal funiculus relative to NEP1-40 alone ([1]; inosine combined with NEP1-40): did not increase
- number of axons >40 μm in the cervical gray matter relative to NEP1-40 alone ([1]; inosine combined with NEP1-40): strongly increased
- number of axons >200 μm in the cervical gray matter relative to NEP1-40 alone ([1]; inosine combined with NEP1-40): strongly increased
- performance on horizontal ladder walk [2]: enhanced performance; also recorded: far superior to saline-treated controls
- metallothionine positively staining profiles per field (C1q, C3, metallothionein): 17.9±0.8
- increase of number of metallothionine positively staining profiles per field (C1q, C3, metallothionein; vs saline): 28%
- C1q average grain pixel density (C1q, C3, metallothionein; [5]): 5654±894
- C3 average grain pixel density (C1q, C3, metallothionein; [5]): 1377±101
- increase of C1q staining intensity (C1q, C3, metallothionein; [6]): 75%
- increase of C3 staining intensity (C1q, C3, metallothionein; [6]): 37%
- long-distance corticospinal tract regeneration [3]: modest effects
- sprouting of corticospinal tract axons rostral to the injury site [3]: enhanced the sprouting
- sprouting of raphespinal fibers distal to the injury site [3]: enhanced the sprouting
